# Measured values from patent US20240166624A1, “PPARG INVERSE AGONISTS AND USES THEREOF” (Flare Therapeutics Inc., priority 2021, published 2024).
# Legend:
# [1] = biological target: T1, PPARG/RXRA LBD heterodimer (Homo sapiens, UniProt P37231); assay: PPARγ-MED1 blockade assay (TR-FRET, biotinylated MED1 LxxLL peptide); format: biochemical; conditions: WT PPARG LBD/WT RXRA LBD, 80 nM Rosiglitazone, 3 hours
# T1 construct: His-TEV-Q203-Y477; Uniprot ID P37231-2; made in house; host or cells: E. coli
# T1 sequence (P37231 203-477 isoform P37231-2): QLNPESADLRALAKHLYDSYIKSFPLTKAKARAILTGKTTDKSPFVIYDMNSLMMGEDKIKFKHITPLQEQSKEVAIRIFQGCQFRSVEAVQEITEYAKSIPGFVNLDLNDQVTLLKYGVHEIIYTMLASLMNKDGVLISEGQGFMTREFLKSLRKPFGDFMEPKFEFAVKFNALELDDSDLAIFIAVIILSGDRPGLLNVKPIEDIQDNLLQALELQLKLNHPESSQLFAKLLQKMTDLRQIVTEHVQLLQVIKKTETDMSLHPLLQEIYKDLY
# T1 sequence (P19793 228-462 partner limits assumed): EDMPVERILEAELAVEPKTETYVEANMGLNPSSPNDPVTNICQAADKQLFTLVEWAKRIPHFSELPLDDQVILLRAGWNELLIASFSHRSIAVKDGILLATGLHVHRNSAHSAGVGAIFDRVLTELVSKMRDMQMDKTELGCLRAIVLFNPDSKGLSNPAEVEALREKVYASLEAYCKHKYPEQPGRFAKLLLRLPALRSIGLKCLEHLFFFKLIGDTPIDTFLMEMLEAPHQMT
# Protocol: PPARγ-MED1 Blockade Assay:
# Compound potency (IC50) and maximal extent of MED1 repulsion to PPARG were assessed a TR-FRET binding assay measuring association of a biotinylated MED1 LxxLL peptide (Biotin-[…]-amide) to PPARG/RXRA LBD heterodimer. Specifically, a 20 microliters of TR-FRET master mix consisting of 2 nM WT PPARG LBD (E. coli expressed, His-TEV-Q203-Y477; Uniprot ID P37231-2), 2 nM WT RXRA LBD (E. coli expressed, Flag-TEV-E228-T462; […]. Mixtures were incubated for 3 hours and read in an EnVision plate reader (Perkin Elmer) with Ex/Em 615/665. To determine the potency (IC50) and extent of MED1 repulsion, TR-FRET ratios were normalized to the average ratio of DMSO control wells (0%) and to the average minimum ratio for positive control compound (GW9662 (2-chloro-5-nitrobenzanilide); defined as 100%) in CDD Vault and analyzed using the Levenberg-Marquardt algorithm.
# [2] = biological target: T2, PPARG/RXRA LBD heterodimer (Homo sapiens, UniProt P37231); assay: PPARγ-NCOR1 recruitment assay (TR-FRET, biotinylated NCOR1 ID2 peptide); format: biochemical; conditions: 80 nM Rosiglitazone, 3 hours, read-out: PPARG-NCOR recruitment assay EC50
# T2 construct: His-TEV-Q203-Y477; Uniprot ID P37231-2; made in house; host or cells: E. coli
# Protocol: PPARγ-NCOR1 Recruitment Assay:
# Compound potency (EC50) and maximal extent of NCOR1 recruitment to PPARG were assessed a TR-FRET binding assay measuring association of a biotinylated NCOR1 ID2 peptide (Biotin-[…]-amide) to PPARG/RXRA LBD heterodimer. Specifically, a 20 microliters of TR-FRET master mix consisting of 2 nM WT PPARG LBD (E. coli expressed, His-TEV-Q203-Y477; Uniprot ID P37231-2), 2 nM WT RXRA LBD or mutant S427F RXRA LBD (E. coli expressed, Flag-TEV-E228-T462; […]. Mixtures were incubated for 3 hours and read in an EnVision plate reader (Perkin Elmer) with Ex/Em 615/665. To determine the potency (EC50) and extent of NCOR1 recruitment, TR-FRET ratios were normalized to the average ratio of DMSO control wells (0%) and to the average maximum ratio for positive control compound (T0070907 (2-chloro-5-nitro-N-4-pyridinyl-benzamide); defined as 100%) in CDD Vault and analyzed using the Levenberg-Marquardt algorithm.
# T2 sequence (O75376 2251-2273 partner, one chain of several): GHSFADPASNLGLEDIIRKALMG
# [3] = tested on: ANGPTL4, a PPARG target gene, in HT1197 (RXRA S427F mutation) cells; assay: Bladder cancer pharmacodynamic assay, HT1197 cell assay (qPCR of ANGPTL4); format: cell-based; conditions: Homo sapiens, 24 hours, 100 nM compound, relative to DMSO control
# Protocol: Bladder Cancer Pharmacodynamic Assay
# 5637 (PPARG amplified) and HT1197 (RXRA S427F mutation) cells were used for assessment of modulation of PPARG target genes using quantitative PCR. Cells were treated for 24 hours with PPARG inverse agonists prior to analysis of FABP4 (IDT, Cat: Hs.PT 58.20106818) and ANGPTL4 (IDT, Cat: Hs.PT 58.25480012) expression, with expression of the housekeeping gene TBP (IDT, Cat: Hs.PT 58v.39858774) used to normalize expression across samples. Quantitative PCR was performed using an ABI QuantStudio 7 Flex Reaction system. Data were analyzed and reported relative to DMSO control using the comparative Ct method (ΔΔCt).
Compound,EC50 [1] [nM],EC50 [2] [nM],inhibition at 0.1 µM [3] [%]
"N#Cc1ccc(F)c(-c2cc(=O)c3c(F)cc(F)cc3[nH]2)c1 [Example 3, 3-(5,7-difluoro-4-oxo-1,4-dihydroquinolin-2-yl)-4-fluorobenzonitrile]",1000 to 10000,1000 to 10000,
"N#Cc1ccc(Cl)c(-c2cc(=O)c3c(Cl)cc(Cl)cc3[nH]2)c1 [Example 7, 4-chloro-3-(5,7-dichloro-4-oxo-1,4-dihydroquinolin-2-yl)benzonitrile]",100 to 1000,100 to 1000,90
"N#Cc1ccc(Cl)c(-c2cc(=O)c3cc(F)cc(F)c3[nH]2)c1 [Example 8, 4-chloro-3-(6,8-difluoro-4-oxo-1,4-dihydroquinolin-2-yl)benzonitrile]",> 10000,> 10000,
"Cc1cc2[nH]c(-c3cc(C#N)ccc3Cl)cc(=O)c2cc1C#N [Example 9, 2-(2-chloro-5-cyanophenyl)-7-methyl-4-oxo-1,4-dihydroquinoline-6-carbonitrile]",1000 to 10000,1000 to 10000,
"N#Cc1ccc(Cl)c(-c2cc(=O)c3c(F)c(F)ccc3[nH]2)c1 [Example 10, 4-chloro-3-(5,6-difluoro-4-oxo-1,4-dihydroquinolin-2-yl)benzonitrile]",1000 to 10000,> 10000,
"N#Cc1ccc(Cl)c(-c2cc(=O)c3cc(C#N)c(C(F)(F)F)cc3[nH]2)c1 [Example 12, 2-(2-chloro-5-cyanophenyl)-4-oxo-7-(trifluoromethyl)-1,4-dihydroquinoline-6-carbonitrile]",1000 to 10000,> 10000,
"N#Cc1ccc(Cl)c(-c2cc(=O)c3ccccc3[nH]2)c1 [Example 13, 4-chloro-3-(4-oxo-1,4-dihydroquinolin-2-yl)benzonitrile]",1000 to 10000,1000 to 10000,17
"O=c1cc(-c2cc([N+](=O)[O-])ccc2Cl)[nH]c2ccccc12 [Example 14, 2-(2-chloro-5-nitrophenyl)quinolin-4(1H)-one]",< 10,< 10,38
"Cc1c(F)cc2[nH]c(-c3cc(C#N)ccc3Cl)cc(=O)c2c1F [Example 15, 4-chloro-3-(5,7-difluoro-6-methyl-4-oxo-1,4-dihydroquinolin-2-yl)benzonitrile]",10 to 100,100 to 1000,89
"N#Cc1ccc(Cl)c(-c2cc(=O)c3c(F)cc(Cl)cc3[nH]2)c1 [Example 16, 4-chloro-3-(7-chloro-5-fluoro-4-oxo-1,4-dihydroquinolin-2-yl)benzonitrile]",100 to 1000,100 to 1000,88
"N#Cc1ccc(Cl)c(-c2cc(=O)c3c(F)c(F)c(F)cc3[nH]2)c1 [Example 17, 4-chloro-3-(5,6,7-trifluoro-4-oxo-1,4-dihydroquinolin-2-yl)benzonitrile]",1000 to 10000,1000 to 10000,66
"N#Cc1ccc(Cl)c(-c2cc(=O)c3c(Cl)cc(F)cc3[nH]2)c1 [Example 18, 4-chloro-3-(5-chloro-7-fluoro-4-oxo-1,4-dihydroquinolin-2-yl)benzonitrile]",100 to 1000,100 to 1000,83
"CN1CCN(c2c(F)cc3[nH]c(-c4cc(C#N)ccc4Cl)cc(=O)c3c2F)CC1 [Example 19, 4-chloro-3-(5,7-difluoro-6-(4-methylpiperazin-1-yl)-4-oxo-1,4-dihydroquinolin-2-yl)benzonitrile]",1000 to 10000,1000 to 10000,75
"N#Cc1ccc(Cl)c(-c2cc(=O)c3c(F)c(N4CCN(CC(F)(F)F)CC4)c(F)cc3[nH]2)c1 [Example 20, 4-chloro-3-(5,7-difluoro-4-oxo-6-(4-(2,2,2-trifluoroethyl)piperazin-1-yl)-1,4-dihydroquinolin-2-yl)benzonitrile]",100 to 1000,100 to 1000,91
"COc1cc(F)cc2[nH]c(-c3cc(C#N)ccc3Cl)cc(=O)c12 [Example 21, 4-chloro-3-(7-fluoro-5-methoxy-4-oxo-1,4-dihydroquinolin-2-yl)benzonitrile]",1000 to 10000,1000 to 10000,87
"COc1cc(F)c2c(=O)cc(-c3cc(C#N)ccc3Cl)[nH]c2c1 [Example 22, 4-chloro-3-(5-fluoro-7-methoxy-4-oxo-1,4-dihydroquinolin-2-yl)benzonitrile]",100 to 1000,100 to 1000,29
"N#Cc1ccc(Cl)c(-c2cc(=O)c3c(F)c(-c4ccncc4)c(F)cc3[nH]2)c1 [Example 23, 4-chloro-3-(5,7-difluoro-4-oxo-6-(pyridin-4-yl)-1,4-dihydroquinolin-2-yl)benzonitrile]",100 to 1000,100 to 1000,55
"Cc1c(F)c(F)cc2[nH]c(-c3cc(C#N)ccc3Cl)cc(=O)c12 [Example 24, 4-chloro-3-(6,7-difluoro-5-methyl-4-oxo-1,4-dihydroquinolin-2-yl)benzonitrile]",100 to 1000,100 to 1000,69
"N#Cc1ccc(Cl)c(-c2cc(=O)c3c(F)c(-n4cccn4)c(F)cc3[nH]2)c1 [Example 25, 4-chloro-3-(5,7-difluoro-4-oxo-6-(1H-pyrazol-1-yl)-1,4-dihydroquinolin-2-yl)benzonitrile]",1000 to 10000,1000 to 10000,22
"CNC(=O)c1c(F)cc2[nH]c(-c3cc(C#N)ccc3Cl)cc(=O)c2c1F [Example 26, 2-(2-chloro-5-cyanophenyl)-5,7-difluoro-N-methyl-4-oxo-1,4-dihydroquinoline-6-carboxamide]",1000 to 10000,> 10000,21
"N#Cc1ccc(Cl)c(-c2cc(=O)c3c(F)c(N4CCCC4=O)c(F)cc3[nH]2)c1 [Example 27, 4-chloro-3-(5,7-difluoro-4-oxo-6-(2-oxopyrrolidin-1-yl)-1,4-dihydroquinolin-2-yl)benzonitrile]",1000 to 10000,1000 to 10000,47
"N#Cc1ccc(Cl)c(-c2cc(=O)c3c(F)c(Br)c(F)cc3[nH]2)c1 [Example 33, 3-(6-bromo-5,7-difluoro-4-oxo-1,4-dihydroquinolin-2-yl)-4-chlorobenzonitrile]",100 to 1000,100 to 1000,
"N#Cc1ccc(Cl)c(-c2cc(=O)c3c(F)cc(C(F)(F)F)cc3[nH]2)c1 [Example 91, 4-chloro-3-(5-fluoro-4-oxo-7-(trifluoromethyl)-1,4-dihydroquinolin-2-yl)benzonitrile]",100 to 1000,100 to 1000,
"N#Cc1ccc(Cl)c(-c2[nH]c3cc(F)cc(F)c3c(=O)c2F)c1 [Example 118, 4-chloro-3-(3,5,7-trifluoro-4-oxo-1,4-dihydroquinolin-2-yl)benzonitrile]",> 10000,> 10000,
"N#Cc1ccc(Cl)c(-c2[nH]c3cc(F)cc(F)c3c(=O)c2Cl)c1 [Example 119, 4-chloro-3-(3-chloro-5,7-difluoro-4-oxo-1,4-dihydroquinolin-2-yl)benzonitrile]",> 10000,> 10000,
